US20260265216A1, “NOVEL THIOREDOXIN REDUCTASE INHIBITORS” (GENEXPLAIN GMBH, priority 2021, published 2026)

Columns and labels:
U2OS = assay: Growth suppression, cancer cell line panel (resazurin); type: cell-based; conditions: 0.4-25.6 μM, 48 hours
Protocol: (§1) Breast, colon, ovarian, cervical, liver and lung carcinoma cell lines were grown in DMEM supplemented with 10% FBS, and antibiotics were cultured at 37° C. and 5% CO2. Osteosarcoma, melanoma, lymphoma, neuroblastoma and leukemia cell lines were cultured in RPMI 1640 with 10% FBS and antibiotics. An oxygen concentration of 0.3% was obtained by flushing a sealed box containing the cells with premixed gas composed of 95% nitrogen (N2) and 5% CO2 (AGA AB, Sweden). To obtain an oxygen concentration of 0.05%, the cells were flushed with the premixed gas continuously throughout the experiment.
(§2) Cells were grown in 96-well plates at a density of 3000 cells per well with or without doxycycline and treated with compounds. After 48 hours of incubation the proliferative cell reagent resazurin (Thermo Fisher Scientific) was added to the cells. The degree of resazurin reduction, which reflects cell viability, was measured by microplate reader by monitoring the absorbance at 570 nm and 600 nm, according to the manufacturer.
(§3) The panel of cancer cell lines, including carcinomas of breast (MDA-MB231, SKBR3, T47D, MCF7; BT549, BT20, MDA-MB468), colon, (SW480, RKO, HT29, HCT116) ovarian (OVCAR3, OVCAR4, OVCAR8), cervical (SW756, C33A), liver (HEPG2) and lung (H23), osteosarcoma (SJSA and U2OS), melanoma (ME180), lymphoma (Raji, HDLM2), neuroblastoma (SKNAS, IMR32) and leukemia (NB4, K562) were treated with increasing concentrations of 1d*HCl: 0.4; 0.8; 1.6; 3.2; 6.4; 12.8; 25.6 μM in 96-well plates. After 48 hours of incubation the proliferative cell reagent resazurin was added to the cells. The degree of resazurin reduction, which reflects cell viability, was measured by microplate reader by monitoring the absorbance at 570 nm and 600 nm, according to the manufacturer, and the IC50 and AUC (area under curve) were determined (Table 2). As could be seen in Table 2, 1d*HCl suppressed the growth of cancer cell lines of a different origin, including carcinomas, osteosarcomas, melanoma, lymphoma, leukemia and neuroblastoma. These findings open up a possibility of the application of the present invention in anti-cancer therapy in a broad range of tumor types.

IMR32 = assay: as above; type: cell-based; conditions: IMR32, 0.4-25.6 μM, 48 hours
Protocol: as §1, §2, §3

Cl.N#Cc1c(-c2cccnc2)[n+]([O-])c2cc(F)c(N3CCOCC3)cc2[n+]1[O-] [Compound 1d*HCl, 6-Fluoro-7-(morpholin-4-yl)-3-(pyridin-3-yl)quinoxaline-2-carbonitrile-1,4-dioxide hydrochloride]
AUC (area under curve) (U2OS): 2.10 | AUC (area under curve) (IMR32): 6.40
